Measurements taken from US20250041461A1, “[177LU] LUTETIUM-PSMA I&T COMPOSITION AND DOSIMETRY, KIT, METHOD OF MAKING, AND METHOD OF USING THEREOF” (Curium US LLC, priority 2023, published 2025).
Values joined by “and” are separate entries in the source; they are usually repeats but may differ in a detail not shown here. Equal entries are not always repeated.

Assay: Dosimetry sub-study, first 12 patients, cycle 1 (SPECT/CT, TIAC, OLINDA 2.2.3)
Format: in vivo, human
Conditions: for dose estimate, Mean: Eclipse; for Extrapolation of Absorbed Dose to 6 Cycles Assuming 7.4 GBq per cycle: kidneys; for Kidneys Absorbed Dose Assuming 7.4 GBq per cycle: one cycle; for Effective Dose Cycle 1: whole body
Description: Twelve subjects were administered a target activity of 7.4 GBq (mean 7.56±0.17 GBq) of [^177Lu]Lu-PSMA-I&T. Following the infusion, subjects underwent single photon emission computed tomography (SPECT)/computed tomography (CT) imaging at four timepoints (4 hours, 24 hours, 48 hours, and 168 hours). Image data was analyzed to compute time integrated activity coefficients (TIAC) in each organ of interest defined a priori in the independent review charter and in organs showing appreciable and meaningful [^177Lu]Lu-PSMA I&T activity. Segmented organs included kidneys, bladder, liver, lacrimal glands, salivary glands, intestine, lumbar vertebrae L2-L4, and whole body. To compute subject-specific organ doses, organ-level TIAC data were entered into Organ Level Internal Dose Assessment (OLINDA 2.2.3) and resulting organ doses for each target organ and whole-body effective dose were collated and averaged.
Patients received SPECT/CT imaging (anatomical coverage included the salivary gland in most of the patients and extended through the pelvis) following the injection of 7.4 (±10%) GBq of [^177Lu]Lu-PSMA-I&T (detailed injected doses are reported in Table 36). All patients completed the first treatment cycle, and the acquisition of images was carried out. To note, for patient 37-016 the 168 hours SPECT/CT timepoint wasn't acquired, whereas patient 12-004 48 hours scan was presenting unrealistically high values, and the 48 hours scan was therefore excluded from further analysis.
The imaging data was analyzed using Invicro's VivoQuant software, a validated software used in a 21 CFR § 11-compliant workflow. The general quantification approach was based on the principles detailed in the Medical Internal Radiation Dose (MIRD) Pamphlet No. 16, No 23, and No 26, as appropriate.
Each SPECT image was co-registered with its corresponding CT. Image calibration was performed to convert the counts measured on the SPECT images to activity (Bq). The same SPECT/CT system was used in each patient for the entirety of the dosimetry study.
Regions of interest (ROI) (kidneys, bladder, liver, lumbar vertebrae L2-L4, lacrimal glands, salivary glands (parotid and submandibular glands), and whole body) were drawn on each dataset by a trained image analyst. […] Lumbar vertebrae L2-L4 was delineated for all patients on the CT images to derive red marrow doses.^4 For kidneys, a ROI was drawn on the SPECT image encompassing all the uptake seen in the kidneys. Similarly for lacrimal glands, all the uptake observed on the SPECT image at the lacrimal glands' location was segmented. [^177Lu]Lu-PSMA-I&T distribution in a patient imaged over time is represented in FIG. 16.
Time-activity curves of the activity in each ROI as a function of time were plotted. These curves were normalized by the known injected activity to arrive at units of fraction of injected activity. Calculations of time-integrated activity coefficient (TIAC, in units of hours) were performed for each region of interest listed above.
Clearance of the tracer was derived from a data-appropriate fit of each organ time activity curve (TAC). Depending on the shape of the TAC, the data was fitted with the sum of one, two or three exponentials or using a rise and fall model. TIACs were calculated through analytical integration of the curve fit extrapolated to infinite. […] The remainder activity was determined by subtracting the cumulative organ TIACs from the whole body TIAC.
Organ TIACs were inputted into Organ Level Internal Dose Assessment, OLINDA 2.2.3 for the computation of organ and whole-body absorbed doses and effective dose (computed using ICRP-103 weighing factors). ICRP-89 derived male phantom was used for dose estimation. Organs and body weights as defined by ICRP-89 were scaled based on height and mass using the patient effective mass. Kidney volumes were measured for each patient on the CT images and used for the kidneys mass of the ICRP-89 phantom assuming a density of 1 g/ml. […]

[1] = individual subjects, listed as [^177Lu]Lu-PSMA-I&T

O=C([O-])CC[C@H](NC(=O)N[C@@H](CCCCNC(=O)CCCCCCC(=O)NCCCC[C@@H](NC(=O)[C@@H](Cc1ccccc1)NC(=O)[C@@H](Cc1ccc(O)c(I)c1)NC(=O)CC[C@H](C(=O)[O-])N1CCN(CC(=O)[O-])CCN(CC(=O)[O-])CCN(CC(=O)[O-])CC1)C(=O)[O-])C(=O)[O-])C(=O)[O-].[177Lu+3].[H+].[H+].[H+].[H+].[H+] [^177Lu-PSMA I&T, (3S,7S,26R,29R,32R,37R)-29-benzyl-32-(4-hydroxy-3-iodobenzyl)-5,13,20,28,31,34-hexaoxo-37-(4,7,10-tris(carboxymethyl)-1,4,7,10-tetraazacyclododecan-1-yl)-4,6,12,21,27,30,33-heptaazaheptatriacontane-1,3,7,26,37-pentacarboxylic acid; lutetium-177 (III)]
Mean whole body effective dose (12 patients, cycle 1): 0.095±0.048 mSv/MBq
Whole-body time integrated activity coefficient, mean (12 patients, cycle 1): 24.1 ± 18.7 h
absorbed dose, kidneys (12 patients, cycle 1): 0.43±0.18 Gy/GBq
absorbed dose, lacrimal glands (12 patients, cycle 1): 0.67±0.33 Gy/GBq
absorbed dose, left colon (12 patients, cycle 1): 0.54±0.42 Gy/GBq
absorbed dose, rectum (12 patients, cycle 1): 0.52±0.40 Gy/GBq
absorbed dose, red marrow (12 patients, cycle 1): 0.08±0.15 Gy/GBq
absorbed dose, right colon (12 patients, cycle 1): 0.30±0.23 Gy/GBq
absorbed dose, salivary glands (12 patients, cycle 1): 0.13±0.08 Gy/GBq
absorbed dose, urinary bladder wall (12 patients, cycle 1): 0.38±0.03 Gy/GBq
Whole-body time integrated activity coefficients, mean (12 patients, cycle 1, 7.4 GBq): 24.1 ± 18.7 h
estimated absorbed dose for the kidneys after 6 cycles, max (12 patients, 7.4 GBq per cycle): 35.83 Gy
estimated absorbed dose for the kidneys after 6 cycles, min (12 patients, 7.4 GBq per cycle): 9.9 Gy
estimated mean absorbed dose for the kidneys after 6 cycles (12 patients, 7.4 GBq per cycle, listed as [^177Lu]Lu-PSMA-I&T): 19.3 Gy and 19.3±8.0 Gy
Absorbed Dose, Mean (Adrenals, cycle 1, 12 patients): 0.03 Gy/GBq
Absorbed Dose, Mean (Brain, cycle 1, 12 patients): 0.02 Gy/GBq
Absorbed Dose, Mean (Esophagus, cycle 1, 12 patients): 0.02 Gy/GBq
Absorbed Dose, Mean (Eyes, cycle 1, 12 patients): 0.02 Gy/GBq
Absorbed Dose, Mean (Gallbladder Wall, cycle 1, 12 patients): 0.02 Gy/GBq
dose estimate, Mean (Heart Wall): 0.02 Gy/GBq
Absorbed Dose, Mean (Heart Wall, cycle 1, 12 patients): 0.02 Gy/GBq
dose estimate, Mean (Kidneys): 0.43 Gy/GBq
Absorbed Dose, Mean (Kidneys, cycle 1, 12 patients): 0.43 Gy/GBq
dose estimate, Mean (Lacrimal gland): 0.67 Gy/GBq
Absorbed Dose, Mean (Lacrimal glands (OLINDA sphere model), cycle 1): 0.67 Gy/GBq
dose estimate, Mean (Left colon): 0.54 Gy/GBq
Absorbed Dose, Mean (Left colon, cycle 1, 12 patients): 0.54 Gy/GBq
dose estimate, Mean (Liver): 0.04 Gy/GBq
Absorbed Dose, Mean (Liver, cycle 1, 12 patients): 0.04 Gy/GBq
Absorbed Dose, Mean (Lungs, cycle 1, 12 patients): 0.02 Gy/GBq
Absorbed Dose, Mean (Osteogenic Cells, cycle 1, 12 patients): 0.05 Gy/GBq
Absorbed Dose, Mean (Pancreas, cycle 1, 12 patients): 0.02 Gy/GBq
Absorbed Dose, Mean (Prostate, cycle 1, 12 patients): 0.02 Gy/GBq
dose estimate, Mean (Rectum): 0.52 Gy/GBq
Absorbed Dose, Mean (Rectum, cycle 1, 12 patients): 0.52 Gy/GBq
dose estimate, Mean (Red Marrow): 0.08 Gy/GBq
Absorbed Dose, Mean (Red Marrow, cycle 1, 12 patients): 0.08 Gy/GBq
dose estimate, Mean (Right colon): 0.30 Gy/GBq
Absorbed Dose, Mean (Right colon, cycle 1, 12 patients): 0.30 Gy/GBq
Absorbed Dose, Mean (Salivary Glands, cycle 1, 12 patients): 0.13 Gy/GBq
dose estimate, Mean (Salivary glands): 0.13 Gy/GBq
Absorbed Dose, Mean (Small Intestine, cycle 1, 12 patients): 0.06 Gy/GBq
dose estimate, Mean (Spleen): 0.03 Gy/GBq
Absorbed Dose, Mean (Spleen, cycle 1, 12 patients): 0.03 Gy/GBq
Absorbed Dose, Mean (Stomach Wall, cycle 1, 12 patients): 0.02 Gy/GBq
Absorbed Dose, Mean (Testes, cycle 1, 12 patients): 0.02 Gy/GBq
Absorbed Dose, Mean (Thymus, cycle 1, 12 patients): 0.02 Gy/GBq
dose estimate, Mean (Thyroid): 0.02 Gy/GBq
Absorbed Dose, Mean (Thyroid, cycle 1, 12 patients): 0.02 Gy/GBq
Absorbed Dose, Mean (Total Body, cycle 1, 12 patients): 0.03 Gy/GBq
Absorbed Dose, Mean (Urinary Bladder Wall, cycle 1, 12 patients): 0.38 Gy/GBq
dose estimate, Mean (Urinary bladder wall): 0.38 Gy/GBq
Whole Body TIAC (cycle 1, Mean of 12 subjects): 24.1 h
Kidneys Absorbed Dose (cycle 1, Mean of 12 subjects (Table 41)): 0.43 Gy/GBq
Kidneys Absorbed Dose (cycle 1, individual subjects (Table 41), listed as [^177Lu]Lu-PSMA-I&T): 0.64 Gy/GBq and 0.34 Gy/GBq and 0.81 Gy/GBq and 0.29 Gy/GBq and 0.27 Gy/GBq (2×) and 0.22 Gy/GBq and 0.48 Gy/GBq and 0.32 Gy/GBq and 0.54 Gy/GBq and 0.41 Gy/GBq and 0.57 Gy/GBq
Whole Body TIAC (cycle 1, individual subjects, listed as [^177Lu]Lu-PSMA-I&T): 8.2 h and 17.2 h and 41.7 h and 14.4 h and 69.7 h and 43.7 h and 11.1 h and 12.6 h and 19.7 h and 14.2 h and 8.5 h and 27.6 h
Kidneys Absorbed Dose (cycle 1, individual subjects, listed as [^177Lu]Lu-PSMA-I&T, absorbed dose per injected activity, Gy/GBq): 0.27 Gy/GBq (2×) and 0.22 Gy/GBq and 0.48 Gy/GBq and 0.32 Gy/GBq and 0.54 Gy/GBq and 0.41 Gy/GBq and 0.57 Gy/GBq and 0.64 Gy/GBq and 0.34 Gy/GBq and 0.81 Gy/GBq and 0.29 Gy/GBq
Kidneys Absorbed Dose (cycle 1, individual subjects, listed as [^177Lu]Lu-PSMA-I&T, total absorbed dose, Gy): 2.00 Gy and 2.36 Gy and 3.99 Gy and 3.08 Gy and 4.48 Gy and 2.26 Gy
Extrapolation of Absorbed Dose to 6 Cycles Assuming 7.4 GBq per cycle (Mean of 12 subjects): 19.3 Gy
Extrapolation of Absorbed Dose to 6 Cycles Assuming 7.4 GBq per cycle [1]: 28.5 Gy and 15.0 Gy and 35.8 Gy and 13.0 Gy and 11.8 Gy and 9.9 Gy and 21.3 Gy and 12.0 Gy and 14.0 Gy and 23.8 Gy and 18.0 Gy and 25.1 Gy
Kidneys Absorbed Dose Assuming 7.4 GBq per cycle (Mean of 12 subjects): 3.2 Gy
Kidneys Absorbed Dose Assuming 7.4 GBq per cycle [1]: 4.8 Gy and 2.5 Gy and 6.0 Gy and 2.2 Gy and 2.0 Gy (2×) and 1.7 Gy and 3.6 Gy and 2.3 Gy and 4.0 Gy and 3.0 Gy and 4.2 Gy
Effective Dose Cycle 1 (Mean of 12 subjects): 0.09 mSv/MBq
Effective Dose Cycle 1 [1]: 0.03 mSv/MBq (2×) and 0.09 mSv/MBq and 0.12 mSv/MBq and 0.11 mSv/MBq (2×) and 0.16 mSv/MBq and 0.19 mSv/MBq and 0.07 mSv/MBq (2×) and 0.06 mSv/MBq and 0.08 mSv/MBq
